Data from patent publication US20190256564A1, “NEMERTEA-DERIVED BIOACTIVE COMPOUNDS” (priority 2016, published 2019).

Test system: Artemia salina
Details: in vivo, 24 h
Experimental: Alpha-Nemertides were prepared as described in Example 2, above, or by manual synthesis […] on 2-chlorotrityl resin as described in the Material and methods section below. […]. The brine shrimp assay is commonly used as toxicity assay, but is particularly suitable in the current work as a model system for crustaceans. In the first round of experiments Nemertides α-1, α-2, α-5, and α-6 were evaluated. […]. Artemia salina Assay of Alpha-Nemertides. 100 μl of sea water containing about 20-30 brine shrimps were added to each experimental well of a 96-well microplate. 100 μl of peptide solutions were then added to each well. As a control, some wells were filled with 100 μl of seawater containing shrimps and 100 μl milliQwater. The plates were covered and incubated in the dark at room temperature for 24 hours. After 24 hours, 10 second video clips of each well were filmed through a microscope. The shrimps were subsequently counted and categorized as either dead (not moving), affected (moving slowly, mostly at the bottom of the well) or normal (moving normally compared to the control at all levels of the well). The shrimps were then immobilized by addition of 100 μl of methanol. After 1 hour the total number of shrimps in each well was counted and the ratio (dead+affected)/total was calculated.

CC[C@H](C)[C@@H]1NC(=O)[C@@H](NC(=O)CN)CSSC[C@@H]2NC(=O)[C@@H]3CSSC[C@@H](C(=O)N[C@@H](CC(N)=O)C(=O)N4C[C@H](O)C[C@H]4C(=O)N4C[C@H](O)C[C@H]4C(=O)N[C@@H](CC(N)=O)C(=O)N[C@@H](CCC(N)=O)C(=O)O)NC(=O)[C@H](Cc4c[nH]cn4)NC(=O)[C@H](Cc4ccccc4)NC(=O)[C@H](CC(N)=O)NC(=O)[C@H](Cc4c[nH]c5ccccc45)NC(=O)CNC(=O)[C@H](CSSC[C@H](NC(=O)[C@H](Cc4ccccc4)NC(=O)[C@H](CO)NC(=O)CNC(=O)[C@H]([C@@H](C)O)NC(=O)[C@H](C)NC1=O)C(=O)N[C@@H]([C@@H](C)O)C(=O)N[C@@H](CC(C)C)C(=O)N[C@@H](CO)C(=O)N[C@@H](CCCCN)C(=O)NCC(=O)N3)NC(=O)[C@H](CC(N)=O)NC(=O)[C@H](CCCCN)NC(=O)[C@H]([C@@H](C)O)NC2=O [Nemertide α-5]
IC50: < 1 µM
